Results taken from ChEMBL document CHEMBL5303573, “Mapping human microbiome drug metabolism by gut bacteria and their genes” (Nature, 2019).

What was measured:
[1] = The drug is tested on Coprococcus comes strain: ATCC27758 for biotransformation. The drug concentrations were measured before and after a 12-h incubation by liquid-chromatography-coupled mass spectrometry (LC–MS); assay type: ADME; design: dose 2 uM, timepoint 0 vs 12 hours; conditions: 2 µM
[2] = The drug is tested on Bacteroides vulgatus strain: ATCC8482 for biotransformation. The drug concentrations were measured before and after a 12-h incubation by liquid-chromatography-coupled mass spectrometry (LC–MS); conditions: phocaeicola vulgatus, 2 µM
[3] = The drug is tested on Bacteroides fragilis strain: HMW615 for biotransformation. The drug concentrations were measured before and after a 12-h incubation by liquid-chromatography-coupled mass spectrometry (LC–MS); conditions: 2 µM
[4] = The drug is tested on Bacteroides uniformis strain: ATCC8492 for biotransformation. The drug concentrations were measured before and after a 12-h incubation by liquid-chromatography-coupled mass spectrometry (LC–MS); conditions: 2 µM
[5] = The drug is tested on Eubacterium ventriosum strain: ATCC27560 for biotransformation. The drug concentrations were measured before and after a 12-h incubation by liquid-chromatography-coupled mass spectrometry (LC–MS); assay type: ADME; design: dose 2 uM, timepoint 0 vs 12 hours; conditions: 2 µM
[6] = The drug is tested on Providencia rettgeri strain: DSM1131 for biotransformation. The drug concentrations were measured before and after a 12-h incubation by liquid-chromatography-coupled mass spectrometry (LC–MS); assay type: ADME; design: dose 2 uM, timepoint 0 vs 12 hours; conditions: 2 µM
[7] = The drug is tested on Blautia hansenii strain: DSM20583 for biotransformation. The drug concentrations were measured before and after a 12-h incubation by liquid-chromatography-coupled mass spectrometry (LC–MS); conditions: 2 µM
[8] = The drug is tested on Clostridium sporogenes strain: ATCC15579 for biotransformation. The drug concentrations were measured before and after a 12-h incubation by liquid-chromatography-coupled mass spectrometry (LC–MS); conditions: 2 µM
[9] = The drug is tested on Ruminococcus torques strain: ATCC27756 for biotransformation. The drug concentrations were measured before and after a 12-h incubation by liquid-chromatography-coupled mass spectrometry (LC–MS); assay type: ADME; design: dose 2 uM, timepoint 0 vs 12 hours; conditions: 2 µM
[10] = The drug is tested on Bifidobacterium ruminantium strain: fecal isolate for biotransformation. The drug concentrations were measured before and after a 12-h incubation by liquid-chromatography-coupled mass spectrometry (LC–MS); conditions: 2 µM
[11] = akkermansia muciniphila, 12 h, 2 µM
Description: The drug is tested on Akkermansia muciniphila strain: ATCC BAA-835 for biotransformation. The drug concentrations were measured before and after a 12-h incubation by liquid-chromatography-coupled mass spectrometry (LC–MS)

[12] = The drug is tested on Odoribacter splanchnicus strain: fecal isolate for biotransformation. The drug concentrations were measured before and after a 12-h incubation by liquid-chromatography-coupled mass spectrometry (LC–MS); conditions: 2 µM
[13] = The drug is tested on Alistipes indistinctus strain: DSM22520 for biotransformation. The drug concentrations were measured before and after a 12-h incubation by liquid-chromatography-coupled mass spectrometry (LC–MS); conditions: 2 µM
[14] = segatella copri, 12 h, 2 µM
Description: The drug is tested on Prevotella copri strain: DSM18205 for biotransformation. The drug concentrations were measured before and after a 12-h incubation by liquid-chromatography-coupled mass spectrometry (LC–MS)

[15] = The drug is tested on Ruminococcus lactaris strain: ATCC29176 for biotransformation. The drug concentrations were measured before and after a 12-h incubation by liquid-chromatography-coupled mass spectrometry (LC–MS); conditions: 2 µM
[16] = The drug is tested on Bacteroides xylanisolvens strain: DSM18836 for biotransformation. The drug concentrations were measured before and after a 12-h incubation by liquid-chromatography-coupled mass spectrometry (LC–MS); conditions: 2 µM
[17] = The drug is tested on Dorea formicigenerans strain: ATCC27755 for biotransformation. The drug concentrations were measured before and after a 12-h incubation by liquid-chromatography-coupled mass spectrometry (LC–MS); conditions: 2 µM
[18] = The drug is tested on Enterococcus faecalis strain: V583 for biotransformation. The drug concentrations were measured before and after a 12-h incubation by liquid-chromatography-coupled mass spectrometry (LC–MS); conditions: 2 µM
[19] = anaerostipes sp., 12 h, 2 µM
Description: The drug is tested on Anaerostipes sp. strain: fecal isolate for biotransformation. The drug concentrations were measured before and after a 12-h incubation by liquid-chromatography-coupled mass spectrometry (LC–MS)

[20] = roseburia intestinalis, 12 h, 2 µM
Description: The drug is tested on Roseburia intestinalis strain: L1-82 for biotransformation. The drug concentrations were measured before and after a 12-h incubation by liquid-chromatography-coupled mass spectrometry (LC–MS)

Measured: Bacterial Biotransformation

CN(C/C=C/C#CC(C)(C)C)Cc1cccc2ccccc12 [TERBINAFINE]
Compound NOT metabolized: all assays above
